# Experimental data from patent US20210317092A1 (BAYER PHARMA AKTIENGESELLSCHAFT, priority 2016, published 2021).
# Assays:
# [1] = test system: IL-1B and des-Arg9-bradykinin (DABK) induced paw oedema; experiment: Rat paw oedema in vivo model; details: p.o., p < 0.05 versus vehicle (6.45 ± 1.14)
# Procedure: Rat Paw Oedema In Vivo Model
# Male Sprague Dawley rats, approximately 250 g body weight, were used. The compound examples were administered orally in the vehicle as described in “Rat CFA in vivo model”, supra. Rats were treated orally (p.o.) with a solution of 5 mL/kg bodyweight of the vehicle only or 5 mL/kg bodyweight of a solution containing the vehicle plus the compound in a dose as indicated in Table 4. Rats received an intraplantar injection of IL-1B (5 μg in 20 μL) and des-Arg9-bradykinin (DABK; 10 μg in 20 μL) at 20 and 40 minutes after compound treatment, respectively. Paw oedema was measured by water displacement using a plethysmometer (Ugo Basile, Gemonio, Italy). Paw oedema measurement was performed before compound administration (baseline) and subsequently at 20, 40 and 60 minutes after DABK injection. Paw oedema was calculated by subtracting the baseline value to post-DABK treatment values for each individual and at each time point. Data were analysed by calculating the area under the paw oedema time curve for each individual (0-60 minutes post-DABK). The effect of the compound example, relative to that of the vehicle, was analysed by performing a one-way ANOVA followed by a Dunnett's post-hoc test. […] The mean and standard deviation were calculated for each treatment group for graphical representations.
# [2] = test system: CFA-induced mechanical hyperalgesia; experiment: Rat CFA in vivo model (mechanical hyperalgesia, paw withdrawal threshold); details: dosed 1 h before CFA and 24 h later, mean ± S.D.
# Procedure: Male Sprague Dawley rats were used. Mechanical hyperalgesia was induced by injecting 25 μL of Complete Freund's Adjuvant (CFA) into the plantar surface of one hind paw. Mechanical hyperalgesia was measured using the Pressure Application Measurement apparatus (Ugo Basile, Gemonio, Italy). Briefly, a linearly increasing pressure was applied to an area of ˜ 50 mm2 of the plantar side of the hind paw until a behavioural response (paw withdrawal) was observed or until the pressure reached 1000 gf. The pressure at which the behavioural response occurred was recorded as the “Paw Withdrawal Threshold” (PWT). Both CFA-injected and contralateral PWTs were determined for each rat, in each treatment group and for the vehicle group at each time point of the studies. Each compound example was administered orally in the vehicle solution of dimethylsulfoxide (DMSO), Polyethylenglycol (PEG) and 2-Hydroxypropyl-beta-cyclodextrin (HPCD) (v/v/v=3:20:77). Rats received a first dose as specified in Table 3 in a solution of 5 mL/kg bodyweight application volume 1 hour before CFA injection and a second dose 24 hours later. Mechanical hyperalgesia testing was performed approximately 2 hours before CFA injection, then 2 and 4 hours after the second dose of compound example (i.e. 26 and 28 hours after CFA treatment). Animals in the vehicle group were treated in the identical way like the other groups but without compound in the orally applied solution. Data were expressed as the mean±S.D. Area Under the Curve (AUC) of PWTs (defined in table 3 as “AUC of Paw withdrawal threshold (AUC 0-4 hours) post-vehicle” with respect to vehicle group or “AUC of Paw withdrawal threshold (AUC 0-4 hours) post-drug” with respect to the compound example). Data were analysed by performing a one-way ANOVA followed by a Dunnett's post hoc test. For p values less than 0.05 the results were deemed to be statistically significant.
compound,measurement,setting,value
"CCOc1ccc(-c2ccc(NC(=O)C3(c4cccc(Cl)c4)CC3)cc2-c2nnn[nH]2)cn1 [Example 253, 1-(3-Chlorophenyl)-N-[4-(6-ethoxypyridin-3-yl)-3-(1H-tetrazol-5-yl)phenyl]cyclopropanecarboxamide]",AUC of Paw Oedema (AUC 0-1 hour post DABK),[1]; 10 mg/kg,3.24 ± 2.73 (*)
same,AUC of Paw Oedema (AUC 0-1 hour post DABK),[1]; 30 mg/kg,3.67 ± 2.35 (*)
same,AUC of Paw withdrawal threshold (AUC 0-4 hours) post-drug,"[2]; 3 mg/kg p.o., p < 0.05 vs vehicle (1083 ± 93 gf)",1415 ± 274 gf (*)
same,AUC of Paw withdrawal threshold (AUC 0-4 hours) post-drug,"[2]; 10 mg/kg p.o., p < 0.01 vs vehicle (1083 ± 93 gf)",1439 ± 310 gf (**)
same,AUC of Paw withdrawal threshold (AUC 0-4 hours) post-drug,"[2]; 30 mg/kg p.o., p < 0.0001 vs vehicle (1083 ± 93 gf)",1649 ± 301 gf (***)
